Results taken from PMC8113213, “Physiologically based kinetic modelling based prediction of in vivo rat and human acetylcholinesterase (AChE) inhibition upon exposure to diazinon” (Archives of Toxicology, 2021).
pIC50: −log10 of the molar value. Where two headings read alike, the source gives them in different places.

Key:
[1] = human; ref Garfitt et al. 2002; Poet et al. 2004; cited from earlier work
[2] = rat; ref Poet et al. 2004; cited from earlier work
rat RBC AChE = target: T1, rat RBC AChE (Rattus norvegicus, UniProt P37136); experiment: In vitro AChE inhibition assay (Ellman) with extracted rat RBC AChE; assay type: biochemical; conditions: rat; IC50 DZO/IC50 DZN, TEF of DZO set at 1.0
T1 construct: the membrane fraction (containing AChE) was sedimented by centrifugation at 20,000g for 40 min; tissue BioIVT; host or cells: rat red blood cell membranes (from whole blood)
Description: (§1) However, since recombinant rat AChE was not commercially available, extracted rat RBC AChE was used. […] The concentration of DTNB was calculated based on the concentration ratio (ATC/DTNB) of 2 (Stern et al. [2014]). […] To initiate the inhibition reaction, 1 µl rhAChE or rat AChE (final concentration 0.6 mU/ml) was added to the incubation. The total incubation volume was 50 µl. After 15 min incubation at 37℃, 150 µl reaction reagents (mixture of ATC at a final concentration of 150 µM and DTNB at a final concentration of 75 µM) were added into each well. The final total volume of each well was 200 µl. Subsequently, the 96-well plate was measured continuously for 10 min at absorbance 412 nm at 37℃ to quantify the remaining AChE activity.
(§2) The rhAChE and rat AChE activity were expressed as the remaining AChE activity relative to solvent control (100% activity) and positive control (0% activity) based on Eq. (2):2 AChEactivity\%=A412t10-t0testcompound-A412t10-t0positivecontrol/A412t10-t0solventcontrol-A412t10-t0positivecontrol×100\% , where the A412(t10 − t0)test compound is the change in the absorbance at A412 nm between 0 and 10 min for the test compound, the A412(t10 − t0)positive control is the change in the absorbance at A412 nm between 0 and 10 min for the CPO sample, and the A412(t10 − t0)solvent control is the change in the absorbance at A412nm between 0 and 10 min for the 0.2% ethanol sample.

[3] = Unbound fraction in the in vitro medium by rapid equilibrium dialysis (RED); assay type: in vitro ADME
Description: To assess whether this assumption is reasonable, the fuDZOin vitro was determined. This was done using rapid equilibrium dialysis (RED) performed in line with the manufacturer’s protocol (Thermo Fisher Scientific [2012]). […] The whole device was then incubated for 5 h at 37℃ on a shaker at 250 rmp to reach equilibrium. Then 50 µl of post-incubation sample were separately collected from the sample and buffer chambers into the corresponding Eppendorf tubes. After this 50 µl of PBS buffer was added to the sample taken from the sample chamber and 50 µl of in vitro medium was added to the sample taken from buffer chamber and subsequently 300 µl ice-cold 90% acetonitrile (ACN/water, v/v) were added to both samples to precipitate the protein. All samples were put on ice for 30 min, followed by centrifugation for 30 min at 15,000g. The supernatants were collected for LC–MS/MS analysis of the amount of DZO.

PON1 [4] = target: T2, PON1 (Rattus norvegicus, UniProt P55159); experiment: in vitro; assay type: in vitro ADME; set-up: 1 µl of human or rat liver microsomes (final concentration 0.1 mg microsomal protein/ml); tissue Corning; host or cells: rat liver microsomes (Sprague–Dawley, male); conditions: for Km: pH 7.4
Description: (§3) Preliminary studies were carried to optimize and select the incubation conditions with respect to linearity for both incubation time and microsomal/plasma protein concentration (data not shown). […] After 1 min preincubation in a 37 °C water bath, 1 µl of human or rat liver microsomes (final concentration 0.1 mg microsomal protein/ml), or 1 µl of human or rat plasma (final concentration 0.385 mg plasma protein/ml for human plasma and 0.300 mg plasma protein/ml for rat plasma) was added to initiate the reaction. The total incubation mixture was 200 µl. Control incubations were carried out by replacing liver microsomes or plasma with buffer. The reaction was terminated after 1 min incubation (human samples) or 2 min incubation (rat samples) by adding 200 µl ice-cold ACN. Subsequently, samples were centrifuged at 16000 g (4℃) for 5 min, and supernatants were further diluted (30 × for liver sample and 40 × for plasma sample) in a mixture of ACN and 50 mM Tris–HCl (pH 7.4) (ratio 1:1, v/v) before analysis by LC–MS/MS for quantification of metabolite formation.
(§4) The chromatographic separations were conducted on a Kinetex® 1.7 µm Phenyl-Hexyl 100 Å LC column (100 × 2.1 mm). The injection volume was 1 µl at a flow rate of 0.3 ml/min. The temperature of the column was kept at 40℃. The mobile phase A consisted of ultrapure water with 0.1% (v/v) formic acid, and mobile phase B consisted of acetonitrile (ACN) with 0.1% (v/v) formic acid. […] The instrument was used in positive mode with multiple reaction monitoring (MRM). The optimized acquisition parameters for DZN, DZO and the metabolite IMHP are listed in Supplementary data I.
(§5) The calculation was done using GraphPad Prism 5 for Windows, version 5.04 (GraphPad software, San Diego California USA).

[5] = target: T3, recombinant human AChE (rhAChE) (Homo sapiens, UniProt P22303); experiment: biochemical
T3 construct: purchased Sigma-Aldrich Co
Description: as §1, §2

PON1 [6] = target: T4, PON1 (Homo sapiens, UniProt P27169); experiment: in vitro; assay type: in vitro ADME; conditions: for Km: pH 7.4
T4 construct: 1 µl of human or rat liver microsomes (final concentration 0.1 mg microsomal protein/ml); tissue Corning; host or cells: human liver microsomes, pooled from 20 donors
Description: as §3, §4, §5

PON1 [7] = target: T2, PON1; conditions: ref Makhaeva et al. 2009; cited from earlier work

T2 sequence (P55159 whole entry): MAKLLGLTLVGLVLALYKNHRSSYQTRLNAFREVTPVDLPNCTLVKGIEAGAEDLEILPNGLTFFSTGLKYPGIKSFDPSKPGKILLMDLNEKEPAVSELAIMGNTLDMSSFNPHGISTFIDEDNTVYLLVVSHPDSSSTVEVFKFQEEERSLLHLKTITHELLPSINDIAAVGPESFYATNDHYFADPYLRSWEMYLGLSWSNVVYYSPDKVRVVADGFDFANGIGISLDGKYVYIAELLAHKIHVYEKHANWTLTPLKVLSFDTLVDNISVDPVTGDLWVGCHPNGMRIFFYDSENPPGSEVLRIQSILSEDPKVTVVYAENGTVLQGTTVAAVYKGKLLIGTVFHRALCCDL
T4 sequence (P27169 whole entry): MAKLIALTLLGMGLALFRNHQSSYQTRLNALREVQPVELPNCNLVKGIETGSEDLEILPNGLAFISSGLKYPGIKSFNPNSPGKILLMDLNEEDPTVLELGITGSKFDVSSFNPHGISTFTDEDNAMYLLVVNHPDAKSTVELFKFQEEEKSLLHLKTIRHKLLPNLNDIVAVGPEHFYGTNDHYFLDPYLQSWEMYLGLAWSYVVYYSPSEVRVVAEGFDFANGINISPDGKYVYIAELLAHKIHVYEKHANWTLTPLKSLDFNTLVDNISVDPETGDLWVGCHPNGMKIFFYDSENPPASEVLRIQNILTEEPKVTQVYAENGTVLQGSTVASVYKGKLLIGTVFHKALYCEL
T3 sequence (P22303 32-614): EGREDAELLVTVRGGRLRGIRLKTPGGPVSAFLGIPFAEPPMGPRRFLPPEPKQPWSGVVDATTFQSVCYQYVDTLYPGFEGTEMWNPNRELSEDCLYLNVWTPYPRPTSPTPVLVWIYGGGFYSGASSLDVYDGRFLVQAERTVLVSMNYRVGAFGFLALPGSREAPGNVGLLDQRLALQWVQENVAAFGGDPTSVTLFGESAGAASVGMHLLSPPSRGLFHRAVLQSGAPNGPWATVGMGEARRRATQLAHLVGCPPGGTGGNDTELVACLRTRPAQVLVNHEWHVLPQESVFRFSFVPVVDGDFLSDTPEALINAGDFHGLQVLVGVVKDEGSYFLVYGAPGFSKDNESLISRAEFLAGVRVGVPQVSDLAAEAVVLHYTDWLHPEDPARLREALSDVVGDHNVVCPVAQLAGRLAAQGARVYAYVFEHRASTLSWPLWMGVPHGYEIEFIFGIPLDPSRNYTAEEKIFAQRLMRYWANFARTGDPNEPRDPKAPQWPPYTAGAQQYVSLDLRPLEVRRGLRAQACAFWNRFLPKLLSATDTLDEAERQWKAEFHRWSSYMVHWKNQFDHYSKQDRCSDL
T1 sequence (P37136 other isoform, or with tags, fused parts or gaps): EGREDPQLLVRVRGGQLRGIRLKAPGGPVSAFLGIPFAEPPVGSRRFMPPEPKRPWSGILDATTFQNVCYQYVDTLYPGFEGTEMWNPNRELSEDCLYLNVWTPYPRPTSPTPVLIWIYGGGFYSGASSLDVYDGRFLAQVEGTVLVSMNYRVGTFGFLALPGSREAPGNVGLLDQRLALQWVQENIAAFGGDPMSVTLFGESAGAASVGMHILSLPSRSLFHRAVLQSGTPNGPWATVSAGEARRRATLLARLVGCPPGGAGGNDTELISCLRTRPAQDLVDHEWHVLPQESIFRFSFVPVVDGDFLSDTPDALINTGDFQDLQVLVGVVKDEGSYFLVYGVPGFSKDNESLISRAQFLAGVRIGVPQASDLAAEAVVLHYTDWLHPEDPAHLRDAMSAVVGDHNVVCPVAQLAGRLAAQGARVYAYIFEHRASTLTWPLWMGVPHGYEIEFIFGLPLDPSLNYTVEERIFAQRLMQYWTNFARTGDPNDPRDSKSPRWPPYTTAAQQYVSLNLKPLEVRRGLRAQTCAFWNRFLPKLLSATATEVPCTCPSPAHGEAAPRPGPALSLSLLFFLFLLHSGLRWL

SMILES: CCOP(O)(=S)OCC [DETP, diethylthiophosphate]
- Ke, elimination into the urine [1]: 12 h⁻¹
- Ke, elimination into the urine [2]: 0.29 h⁻¹

SMILES: CCOP(=O)(O)OCC [DEP, diethylphosphate]
- Ke, elimination into the urine [1]: 12 h⁻¹
- Ke, elimination into the urine [2]: 0.29 h⁻¹

SMILES: CCOP(=O)(OCC)Oc1cc(C)nc(C(C)C)n1 [DZO, Diazoxon]
- toxic equivalency factor (TEF) (rat RBC AChE): 1.0
- recovery at 5 h, 0.05 µM ([3]; in vitro medium in a RED insert device, read-out: recovery rate of post-dialysis in the in vitro medium): 74%
- fraction unbound at 5 h, 0.05 µM ([3]; in vitro medium with 0.1 mg/ml BSA, read-out: unbound fraction in the in vitro medium (fu in vitro)): 0.96
- Km (PON1 [4]; rat liver microsomes): 668 µM
- Km (PON1 [4]; rat plasma): 536 µM
- Vmax DZO to IMHP, liver (PON1 [4]; rat liver microsomes): 691.100 nmol/min/mg microsomal protein
- Vmax DZO to IMHP, plasma (PON1 [4]; rat plasma): 431.400 nmol/min/mg plasma protein
- PON1-mediated conversion of DZO faster in rat liver than in human liver (PON1 [4]; rat versus human liver): 10.7 fold
- higher Vmax of PON1-mediated conversion in rat liver (PON1 [4]; rat versus human liver): 12.9 fold
- PON1-mediated conversion of DZO faster in rat plasma than in human plasma (PON1 [4]; rat versus human plasma): 4.5 fold
- higher Vmax of PON1-mediated conversion in rat plasma (PON1 [4]; rat versus human plasma): 3.5 fold
- toxic equivalency factor (TEF) ([5]; human, IC50 DZO/IC50 DZN, TEF of DZO set at 1.0): 1.0
- pIC50 ([5]; rhAChE, 15 min incubation at 37℃, read-out: IC50 for inhibition of AChE activity): 7.36
- Vmax DZO to IMHP, plasma (PON1 [6]): 124.000 nmol/min/mg plasma protein
- Vmax DZO to IMHP, liver (PON1 [6]; human liver microsomes): 53.490 nmol/min/mg microsomal protein
- Km (PON1 [6]; human liver microsomes): 557 µM
- Km (PON1 [6]; human plasma): 701 µM

SMILES: CCOP(=O)(OCC)Oc1ccc([N+](=O)[O-])cc1 [paraoxon]
- faster PON1-mediated hydrolysis by rat than human plasma samples (PON1 [7]): approximately 4 fold

SMILES: Cc1cc(=O)nc(C(C)C)[nH]1 [IMHP, 2-isopropyl-4-methyl-6-hydroxypyrimidine]
- Ke, elimination into the urine [1]: 12 h⁻¹
- Ke, elimination into the urine [2]: 0.29 h⁻¹
